Source: ChEMBL document CHEMBL2010684, “JBIR-78 and JBIR-95: phenylacetylated peptides isolated from Kibdelosporangium sp. AK-AA56” (2012)

System: Micrococcus luteus
Test: Antimicrobial activity against Micrococcus luteus at 10 ug after 24 hrs by paper disk method
Assay type: functional
Settings: read-out: DIZ

| Compound | zone of inhibition at 10 µg/disc [mm] |
| --- | --- |
| CC(C)[C@H](NC(=O)Cc1ccccc1)C(=O)N[C@H](CC(=O)O)C(=O)N[C@@H](C)C(=O)N[C@@H](C(=O)NCC(=O)N[C@H](C)C(=O)N[C@@H](Cc1ccccc1)C(=O)O)[C@@H](O)C(C)C | 7.1 |
| CC[C@H]1OC(=O)[C@H](C)[C@@H](O[C@H]2C[C@@](C)(OC)[C@@H](O)[C@H](C)O2)[C@H](C)[C@@H](O[C@@H]2O[C@H](C)C[C@H](N(C)C)[C@H]2O)[C@](C)(O)C[C@@H](C)C(=O)[C@H](C)[C@@H](O)[C@]1(C)O [ERYTHROMYCIN] | 25 |
